Test results from publication doi:10.1101/2021.06.16.448769v1 (bioRxiv, 2021).
One block for each molecule: values may come before it. Bridge positions count the residues as written; N and C are the ends. Ends that are not written are not given here. Peptide text beside a SMILES is read from it. * marks the point of attachment. Palmitoyl = CCCCCCCCCCCCCCCC(=O)*

Key:
[1] = test system: C5 activation (C5b-6), classical pathway; experiment: Classical pathway; format: biochemical
human C5 = human C5 (Homo sapiens, UniProt P01031); experiment: SPR multi-cycle kinetics, binding to human C5; conditions: for fold change in KD relative to parent: relative to the unmodified parent knob domain, Figure 5H
[2] = test system: C5 activation (C5b-6), alternative pathway; experiment: Alternative pathway; format: biochemical
[3] = Plasma pharmacokinetics after intravenous bolus; format: in vivo, Sprague Dawley rats; conditions: male, Sprague-Dawley, rat
Solubility = format: physicochemical; conditions: reason for lower in vivo dose of 1 mg/kg
[4] = Plasma stability, mouse plasma; format: in vitro ADME; conditions: plasma (lithium heparin)
[5] = Plasma stability, human plasma; format: in vitro ADME; conditions: plasma (lithium heparin)
rat C5 protein = rat C5 protein (Rattus norvegicus, UniProt P08650); experiment: SPR single-cycle kinetics, binding to rat C5
[6] = Plasma stability, rat plasma; format: in vitro ADME; conditions: plasma (lithium heparin)

human C5, sequence (P01031 19-673 limits assumed): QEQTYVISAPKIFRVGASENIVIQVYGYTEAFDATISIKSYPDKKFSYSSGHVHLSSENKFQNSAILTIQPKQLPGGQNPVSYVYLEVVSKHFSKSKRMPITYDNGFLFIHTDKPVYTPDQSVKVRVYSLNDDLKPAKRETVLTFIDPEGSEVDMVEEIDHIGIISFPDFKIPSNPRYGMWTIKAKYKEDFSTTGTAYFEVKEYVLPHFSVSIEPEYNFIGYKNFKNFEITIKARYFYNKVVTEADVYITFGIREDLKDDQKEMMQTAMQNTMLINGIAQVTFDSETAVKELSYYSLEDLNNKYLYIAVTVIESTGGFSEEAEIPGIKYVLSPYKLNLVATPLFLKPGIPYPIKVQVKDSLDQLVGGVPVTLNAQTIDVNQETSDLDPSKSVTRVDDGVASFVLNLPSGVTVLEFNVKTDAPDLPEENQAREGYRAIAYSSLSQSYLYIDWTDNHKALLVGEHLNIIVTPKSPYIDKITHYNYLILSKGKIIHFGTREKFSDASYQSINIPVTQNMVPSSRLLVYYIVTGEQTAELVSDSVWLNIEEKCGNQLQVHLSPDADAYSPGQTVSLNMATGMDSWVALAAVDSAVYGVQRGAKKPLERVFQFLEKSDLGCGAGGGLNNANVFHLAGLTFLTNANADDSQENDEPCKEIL
human C5, sequence (P01031 678-1676 limits assumed): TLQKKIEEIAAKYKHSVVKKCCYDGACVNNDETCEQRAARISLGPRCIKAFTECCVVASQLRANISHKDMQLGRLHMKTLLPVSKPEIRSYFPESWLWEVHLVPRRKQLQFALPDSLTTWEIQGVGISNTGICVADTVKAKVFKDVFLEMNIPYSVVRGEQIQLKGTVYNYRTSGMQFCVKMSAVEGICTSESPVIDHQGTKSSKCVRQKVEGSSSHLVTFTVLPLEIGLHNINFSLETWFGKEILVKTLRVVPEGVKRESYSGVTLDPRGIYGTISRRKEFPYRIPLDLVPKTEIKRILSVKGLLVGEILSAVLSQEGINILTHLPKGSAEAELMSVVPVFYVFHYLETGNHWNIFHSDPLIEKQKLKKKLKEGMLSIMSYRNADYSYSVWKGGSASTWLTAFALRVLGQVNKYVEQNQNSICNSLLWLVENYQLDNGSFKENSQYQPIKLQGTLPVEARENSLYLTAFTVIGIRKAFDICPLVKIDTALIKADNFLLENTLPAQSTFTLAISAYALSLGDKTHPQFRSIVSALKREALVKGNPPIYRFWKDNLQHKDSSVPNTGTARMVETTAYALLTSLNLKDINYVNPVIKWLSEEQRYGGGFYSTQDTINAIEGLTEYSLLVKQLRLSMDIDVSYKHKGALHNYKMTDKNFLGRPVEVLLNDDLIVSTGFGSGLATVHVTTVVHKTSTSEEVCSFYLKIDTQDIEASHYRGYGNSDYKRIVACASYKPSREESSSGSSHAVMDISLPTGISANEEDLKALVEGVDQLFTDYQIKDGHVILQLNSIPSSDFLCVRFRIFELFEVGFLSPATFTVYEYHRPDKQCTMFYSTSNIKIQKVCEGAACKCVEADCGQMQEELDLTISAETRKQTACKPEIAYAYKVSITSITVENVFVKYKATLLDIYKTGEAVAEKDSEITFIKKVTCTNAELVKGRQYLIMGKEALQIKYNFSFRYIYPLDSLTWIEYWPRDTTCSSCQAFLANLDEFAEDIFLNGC
rat C5 protein, sequence (P08650 19-1681): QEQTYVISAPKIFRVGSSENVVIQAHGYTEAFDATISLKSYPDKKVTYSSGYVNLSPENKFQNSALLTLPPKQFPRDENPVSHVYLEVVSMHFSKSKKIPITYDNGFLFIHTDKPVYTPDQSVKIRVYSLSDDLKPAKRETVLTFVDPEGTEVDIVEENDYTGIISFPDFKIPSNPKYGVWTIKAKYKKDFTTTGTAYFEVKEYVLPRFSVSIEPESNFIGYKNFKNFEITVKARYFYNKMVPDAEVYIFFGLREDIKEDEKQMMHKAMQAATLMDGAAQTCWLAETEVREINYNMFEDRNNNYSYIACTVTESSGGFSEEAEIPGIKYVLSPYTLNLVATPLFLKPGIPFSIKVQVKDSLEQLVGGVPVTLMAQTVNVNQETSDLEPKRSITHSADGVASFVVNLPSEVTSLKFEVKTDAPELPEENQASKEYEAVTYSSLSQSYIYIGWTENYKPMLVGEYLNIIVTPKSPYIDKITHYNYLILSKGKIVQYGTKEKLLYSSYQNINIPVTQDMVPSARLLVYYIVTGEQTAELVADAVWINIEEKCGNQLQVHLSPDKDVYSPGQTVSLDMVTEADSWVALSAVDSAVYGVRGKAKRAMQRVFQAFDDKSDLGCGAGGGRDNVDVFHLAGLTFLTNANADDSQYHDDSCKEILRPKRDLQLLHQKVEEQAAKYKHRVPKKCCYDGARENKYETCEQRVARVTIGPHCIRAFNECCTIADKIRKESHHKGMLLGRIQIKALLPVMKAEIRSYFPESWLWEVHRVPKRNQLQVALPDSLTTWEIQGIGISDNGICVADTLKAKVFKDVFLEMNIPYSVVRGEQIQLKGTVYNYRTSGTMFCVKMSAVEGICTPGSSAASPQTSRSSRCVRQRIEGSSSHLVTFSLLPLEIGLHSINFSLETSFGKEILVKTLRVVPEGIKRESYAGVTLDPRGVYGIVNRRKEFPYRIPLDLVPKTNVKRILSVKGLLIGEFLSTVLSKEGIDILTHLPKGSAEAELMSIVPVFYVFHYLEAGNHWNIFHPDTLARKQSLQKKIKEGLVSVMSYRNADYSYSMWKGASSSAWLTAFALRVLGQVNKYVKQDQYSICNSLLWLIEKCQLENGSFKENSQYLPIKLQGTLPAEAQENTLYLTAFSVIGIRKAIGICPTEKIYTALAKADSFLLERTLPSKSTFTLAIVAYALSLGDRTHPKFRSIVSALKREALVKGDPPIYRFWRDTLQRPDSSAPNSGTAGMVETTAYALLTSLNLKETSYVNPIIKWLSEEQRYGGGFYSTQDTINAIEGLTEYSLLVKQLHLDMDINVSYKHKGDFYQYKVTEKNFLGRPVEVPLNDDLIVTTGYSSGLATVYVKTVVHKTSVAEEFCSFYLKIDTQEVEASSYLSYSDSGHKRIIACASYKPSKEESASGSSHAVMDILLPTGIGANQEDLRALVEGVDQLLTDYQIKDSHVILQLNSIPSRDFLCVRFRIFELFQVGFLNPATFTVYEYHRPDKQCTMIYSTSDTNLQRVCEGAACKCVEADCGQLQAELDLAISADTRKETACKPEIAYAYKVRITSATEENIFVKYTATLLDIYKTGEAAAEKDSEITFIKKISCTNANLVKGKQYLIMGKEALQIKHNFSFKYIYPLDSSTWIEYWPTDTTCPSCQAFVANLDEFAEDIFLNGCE

binding to C5 (in words) (human C5; peptide after reduction and capping of cysteines with iodoacetamide (IAM)): entirely abrogated binding
Molecule: CSCC[C@@H]1NC(=O)[C@@H]2CCCN2C(=O)[C@@H](NC(=O)[C@@H]2CSSC[C@H](NC(=O)[C@@H](N)CO)C(=O)N3CCC[C@H]3C(=O)N[C@@H](CC(=O)O)C(=O)NCC(=O)N[C@@H](Cc3ccccc3)C(=O)N[C@@H](CO)C(=O)N[C@@H](Cc3ccc(O)cc3)C(=O)N[C@@H](CCCNC(=N)N)C(=O)N[C@@H](CO)C(=O)N[C@@H](Cc3c[nH]c4ccccc34)C(=O)N[C@@H](CC(=O)O)C(=O)N[C@@H](CC(=O)O)C(=O)N[C@@H](Cc3ccccc3)C(=O)N2)CSSC[C@@H](C(=O)N[C@@H](CC(C)C)C(=O)N[C@@H](C)C(=O)N2CCC[C@H]2C(=O)N[C@@H](CCCNC(=N)N)C(=O)N[C@@H](CC(N)=O)C(=O)O)NC(=O)[C@H](CCCNC(=N)N)NC(=O)CNC(=O)[C@H](C(C)C)NC1=O [K149chemFE] (H-SCPDGFSYRSWDDFCCPMVGRCLAPRN-OH; disulfide 2-15, 16-22 (inferred); N-terminus assumed)
effect in CP ELISA (in words) [1]: non-functional, silent binder of C5 | effect in AP ELISA (in words) [2]: non-functional, silent binder of C5

Kd (human C5; mean KD, SPR multi-cycle kinetics, mean of n=3): 0.41 nM
Molecule: CC[C@H](C)[C@@H]1NC(=O)[C@H](C)NC(=O)[C@H](C(C)C)NC(=O)CNC(=O)[C@@H]2CSSC[C@@H](C(=O)NCC(=O)N[C@@H](Cc3c[nH]cn3)C(=O)N[C@@H](Cc3ccccc3)C(=O)N[C@@H](CC(C)C)C(=O)N[C@@H](CC(N)=O)C(=O)N[C@@H](CO)C(=O)NCC(=O)N3CCC[C@H]3C(=O)N[C@@H](CC(N)=O)C(=O)N[C@H](C(=O)N[C@@H](CO)C(=O)N3CCC[C@H]3C(=O)N[C@@H](Cc3ccc(O)cc3)C(=O)N[C@H](C(=O)N[C@@H](CO)C(=O)N[C@H](C(=O)O)[C@@H](C)O)C(C)C)[C@@H](C)CC)NC(=O)CNC(=O)[C@H](Cc3c[nH]c4ccccc34)NC(=O)[C@H](CCCNC(=N)N)NC(=O)CNC(=O)[C@H](CSSC[C@H](NC(=O)[C@@H](N)[C@@H](C)O)C(=O)N3CCC[C@H]3C(=O)N[C@@H](CCC(=O)O)C(=O)NCC(=O)N[C@@H](Cc3c[nH]c4ccccc34)C(=O)N[C@@H](CO)C(=O)N[C@@H](CCC(=O)O)C(=O)N2)NC(=O)[C@H](CCC(=O)O)NC(=O)[C@H](Cc2ccc(O)cc2)NC(=O)CNC(=O)[C@H](Cc2ccc(O)cc2)NC1=O [K92chemFE] (H-TCPEGWSECGVAIYGYECGRWGCGHFLNSGPNISPYVST-OH; disulfide 2-18, 9-23; N-terminus assumed)
effect in CP ELISA (in words) [1]: no effect | Alternative pathway ELISA Emax ([2]; Figure 6 data, n=3 replicates): 27%

remaining at 24 h, 6.25 µg/mL [4]: 22% | remaining at 24 h, 6.25 µg/mL [5]: 76% | clearance ([3]; 10 mg/kg): 10.6 mL/min/kg | half-life ([3]; 10 mg/kg): 17 min | cross reactivity with rat C5 (in words) (rat C5 protein): specific for human C5 | remaining at 24 h, 6.25 µg/mL [6]: 56%
Molecule: GCPPGYKSGVDCSPGSECKWGCYAVDGRRYGGYGADSGVGS-OH (disulfide 2-18, 12-22 (inferred)) [K57chemFE]

Second part, the molecule before the results:

Molecule: Palmitoyl-GSSSGCPPGYKSGVDCSPGSECKWGCYAVDGRRYGGYGADSGVGS-OH (disulfide 6-22, 16-26 (inferred)) [K57chemFE-palmitoyl]
fold reduction in affinity for C5 relative to parent (human C5; SPR, relative to unmodified parent peptide): four-fold reduction | clearance ([3]; 1 mg/kg): 0.8 mL/min/kg | half-life ([3]; 1 mg/kg): 96 min | solubility (in words) (Solubility): poor solubility

Molecule: CC[C@H](C)[C@@H]1NC(=O)[C@H](CCCCNC(C)=O)NC(=O)[C@H](C(C)C)NC(=O)CNC(=O)[C@@H]2CSSC[C@@H](C(=O)NCC(=O)N[C@@H](Cc3c[nH]cn3)C(=O)N[C@@H](Cc3ccccc3)C(=O)N[C@@H](CC(C)C)C(=O)N[C@@H](CC(N)=O)C(=O)N[C@@H](CO)C(=O)NCC(=O)N3CCC[C@H]3C(=O)N[C@@H](CC(N)=O)C(=O)N[C@H](C(=O)N[C@@H](CO)C(=O)N3CCC[C@H]3C(=O)N[C@@H](Cc3ccc(O)cc3)C(=O)N[C@H](C(=O)N[C@@H](CO)C(=O)N[C@H](C(=O)O)[C@@H](C)O)C(C)C)[C@@H](C)CC)NC(=O)CNC(=O)[C@H](Cc3c[nH]c4ccccc34)NC(=O)[C@H](CCCNC(=N)N)NC(=O)CNC(=O)[C@H](CSSC[C@H](NC(=O)[C@@H](N)[C@@H](C)O)C(=O)N3CCC[C@H]3C(=O)N[C@@H](CCC(=O)O)C(=O)NCC(=O)N[C@@H](Cc3c[nH]c4ccccc34)C(=O)N[C@@H](CO)C(=O)N[C@@H](CCC(=O)O)C(=O)N2)NC(=O)[C@H](CCC(=O)O)NC(=O)[C@H](Cc2ccc(O)cc2)NC(=O)CNC(=O)[C@H](Cc2ccc(O)cc2)NC1=O [K92chemFE A12K(Ac)] (H-TCPEGWSECGVK(Ac)IYGYECGRWGCGHFLNSGPNISPYVST-OH; disulfide 2-18, 9-23; N-terminus and C-terminus assumed)
fold change in KD relative to parent (human C5): 130.2 | effect in AP ELISA (in words) [2]: two-fold increase in efficacy

Molecule: cyclo(ADSGVGSTGCPPGYKSGVDCSPGSECKWGCYAVDGRRYGGYG) (disulfide 10-26, 20-30 (inferred); ring closure inferred) [K57chemFE^cyclic]
fold change in KD relative to parent (human C5): 0.8
